Here are results for 19 compounds from patent US4874795A, “Composition for delivery of orally administered drugs and other substances” (priority 1986, dated 1989).

Where two headings read alike, the source gives them in different places.

The conditions of data set [1]: cited from earlier work; for absorption in mixed micelle versus alone: mono-olein/sodium taurocholate.
The nature of data set [2]: Capacity and stability of the composition as a vitamin A delivery means. The settings on record: for Viscosity: cold solution. Type of data set: physicochemical. As to the method:
A composition that included oleic acid, monoglyceride and lysophosphatidyl choline as described in Example I was used for characterizing the capacity of the composition for vitamin A (also as described above). Vitamin A was added in batches to the composition as follows: 1st addition, 0.277 mmoles; 2nd, 0.241; 3rd, 0.276; 4th, 0.262 and 5th, 0.285. […] The millimole ratio of the composition was approximately 2:1:0.1 (oleic acid: mono-olein:lysophosphatidyl choline).
After each addition the approximate amount of time necessary for the complete dissolution of the added vitamin A was recorded, as was the extent of schlierin evident. The time needed to obtain a minimal schlieric effect was generally between 5 minutes and 60 minutes and inversely related to the amount of vitamin A added. After each addition and the achievement of a minimal schlieric effect, the solution was placed in an ice-bath in order to evaluate its stability. The relative viscosity of the cold solution was also recorded. […]

The conditions of data set [3]: in vivo; cited from earlier work.
For data set [4] the following is noted: excess bile salts, cited from earlier work.
The conditions of data set [5]: cited from earlier work.
For data set [6] the following is noted: cited from earlier work; for biological activity: oral.
The conditions of data set [7]: cited from earlier work. This is another data set of the same source.
The conditions of data set [8]: oral, cited from earlier work.
For data set [9] the following is noted: rat, in vivo. How it is done: Tritium labeled (^3 H) vitamin A ([…]; Hoffman LaRoche) was incorporated into a lipid formulation of the following composition: 56 mg. of oleic acid (NuCheck Prep, Inc.); 36 mg. of mono-olein (NuCheck Prep, Inc.) and 6 mg. of lysophosphatidyl choline derived from soy lecithin (A. E. Staley Mfg. Co.). This corresponds to an approximate molar ratio of oleic acid: mono-olein: lysophosphatidyl choline of 2:1:0.1. (The approximate molar percentages of the components were 64.5:32.3:3.2, respectively). The composition was administered to Sprague-Dawley rats (weighing 210-230 gm) by gavage.
Tritium-labeled vitamin A (7mg. or 0.25 millimoles) was administered to Sprague-Dawley rats (as above) in 99 mg. food grade, refined corn oil (A. E. Staley Mfg. Co.).
The concentration of vitamin A equivalents in the plasma was measured by obtaining duplicate 0.05 ml. blood samples from the orbital sinus at 0.5, 1, 2, 3, 4, 6, 8 and 24 hours after administration. The blood was collected in hematocrit tubes and centrifuged; the plasma was transferred into tared scintillation vials and weighed. The radioactivity was determined by liquid scintillation counting.

Where [10] appears, read: 1st addition, total 0.277 mmoles.
Setting [11] is: 2nd addition, total 0.518 mmoles.
The mark [12] stands for this setting: 3rd addition, total 0.794 mmoles.
The mark [13] stands for this setting: 4th addition, total 1.056 mmoles.
Setting [14] is: 5th addition, total 1.341 mmoles.

As for `O=c1[nH]cc(F)c(=O)[nH]1` [5-fluorouracil], the figures for the “absorption in mixed micelle versus alone” value in data set [1] (large intestine) and in data set [1] (stomach or small intestine) were “greater” and “little difference”, respectively.

For the compound `CC1=C(/C=C/C(C)=C/C=C/C(C)=C/CO)C(C)(C)CCC1` [Vitamin A], the Schleirin entry in data set [2] (setting [10]) was “none”; in data set [2] (setting [11]), “minimal”; in data set [2] (setting [12]), “medium”; in data set [2] (setting [13]), “medium”; in data set [2] (setting [14]), “extensive”. Also, the “Temp. to attain a clear solution” value in data set [2] (setting [10]) stood at 20 °C; in [2] (setting [11]), 20 °C; in data set [2] (setting [12]), 37 °C; in [2] (setting [13]) it was 37 °C; in [2] (setting [14]) it was 46 °C. Also, the “Time to attain a clear solution” value in [2] (1st addition, total 0.277 mmoles, 20° C.) was found to be 1 min; in data set [2] (2nd addition, total 0.518 mmoles, 20° C.) it was 1 min; in [2] (3rd addition, total 0.794 mmoles, 37° C.), 5 min; in data set [2] (4th addition, total 1.056 mmoles, 37° C.) it was 10 min; in data set [2] (5th addition, total 1.341 mmoles, 46° C.) it was 10 min. Further, the Viscosity result in data set [2] (setting [10]) is recorded as “normal”; in data set [2] (setting [11]), “normal”; in data set [2] (setting [12]), “thicker”; in data set [2] (setting [13]), “viscous”; in data set [2] (setting [14]), “very viscous”. Further, in data set [2] (approximately 1 gm of the composition, after 5th addition), the “total vitamin A added (capacity of the composition)” value was determined as 1.341 mmol.

Take `CCCCCCCCCC(=O)O` [decanoic]: in data set [3], the “absorbed fatty acid transported in the lymph” value is 5-20%.

Turning to `C[C@]12CC[C@@H]3c4ccc(O)cc4CC[C@H]3[C@@H]1CC[C@@H]2O` [estradiol], in data set [4] (with phosphatidyl choline), the “estradiol remaining in 2:1:2 micellar composition” value is reported as 70-75%. Moreover, the “estradiol remaining associated with 2:1:2 micellar composition” value in [4] (without phosphatidyl choline) is on record as “about 60%”. Further, in [5] (2:1:2 composition, excess bile salts), the “initial concentrations in plasma of estradiol relative to lymph” value is “greater than those in lymph”. The “estradiol co-absorbed with lipid and entering circulation via thoracic lymph” value in data set [5] (2:1:2 fatty acids:monoglycerides:bile salts) is given as 25-50%.

As to `COC1=CC(=O)C[C@@H](C)[C@]12Oc1c(Cl)c(OC)cc(OC)c1C2=O` [griseofulvin], the absorption entry in [6] (co-administered with high fat content meal or in oil and water emulsion) is “enhanced”.

For the compound `CCCCCCCCCCCC(=O)O` [lauric], the “absorbed fatty acid transported in the lymph” value in [3] is 15-55%.

For the compound `CCCCC/C=C\C/C=C\CCCCCCCC(=O)O` [linoleic], the “absorption into lymph compared with saturated fatty acids” value in data set [3] was “more rapidly and to a greater extent”.

`CCCCCCCCCCCCCC(=O)O` [myristic]: in [3], the “absorbed fatty acid transported in the lymph” value is recorded as 68-80% and the “absorption of fatty acid” value is 80-90%.

Turning to `CCCCCCCC/C=C\CCCCCCCC(=O)OC[C@@H](O)COP(=O)([O-])OCC[N+](C)(C)C` [oleoyl lysophosphatidyl choline], in [7] (versus lysophosphatidyl choline from mainly saturated phosphatidyl choline), the “increase in triglyceride and phospholipid in lymphatic transported fat” value is 100%.

With `CCCCCCCCCCCCCCCC(=O)O` [palmitic], in data set [3], the “absorbed fatty acid transported in the lymph” value is 85% and the “absorption of fatty acid” value is reported as 65-70%.

For `CC(=O)[C@H]1CC[C@H]2[C@@H]3CCC4=CC(=O)CC[C@]4(C)[C@H]3CC[C@]12C` [progesterone], in data set [6] (in combination with cholesterol or its esters), the biological activity result is recorded as “good sustained biological activity”.

For `CCCCCCCCCCCCCCCCCC(=O)O` [stearic], in data set [3], the “absorbed fatty acid transported in the lymph” value was 85% and the “absorption of fatty acid” value is listed as 30-45%.

For `[H]/N=C(/N)N[C@H]1[C@H](O)[C@@H](O)[C@H](O[C@@H]2O[C@@H](C)[C@](O)(C=O)[C@H]2O[C@@H]2O[C@@H](CO)[C@H](O)[C@@H](O)[C@@H]2NC)[C@@H](N/C(N)=N\[H])[C@@H]1O` [streptomycin], in data set [1] (in vivo), the “absorption from rectum and large intestine” value was “comparable”; the “absorption via rectum and large intestine versus comparable dose administered duodenally” value is “markedly greater”; the “absorption without micelle formulation” value was “poorly absorbed”.

On to `CCCCCCCCCCC(=O)O[C@H]1CC[C@H]2[C@@H]3CCC4=CC(=O)CC[C@]4(C)[C@H]3CC[C@]12C` [testosterone undecanoate], for which the biological activity entry in [6] (peanut oil solution versus aqueous micro-crystalline suspension) was “more biologically active”.

For `COC1=C(OC)C(=O)C(C/C=C(\C)CC/C=C(\C)CC/C=C(\C)CC/C=C(\C)CC/C=C(\C)CC/C=C(\C)CC/C=C(\C)CC/C=C(\C)CC/C=C(\C)CCC=C(C)C)=C(C)C1=O` [ubidecarenone], the absorption of ubidecarenone in data set [8] (drug alone) was 2.3%; in data set [8] (in mixture of C12-18 fatty acids and monoglycerides), 8.3%.

For the compound Corn Oil, the “absorption of vitamin A” value in data set [9] is listed as “complete”. In addition, in data set [9] (po, 180 min), the “vitamin A absorbed” value turned out to be 77%.

Consider gentamycin, for which the “absorption from rectum and large intestine” value in data set [1] (bile salt: mixed lipid micelle) is on record as “comparable”. The “absorption via rectum and large intestine versus comparable dose administered duodenally” value in [1] (mixed lipid micelle, duodenal concentration even four times higher) is given as “markedly greater”.

Consider heparin, for which, in data set [1] (in vivo), the “absorption from large intestine relative to small intestine” value was “twice”; the “absorption without micelle formulation” value is “poorly absorbed”; the “concentration in mixed micelle for potentiation, large intestine relative to small intestine” value is reported as “approximately one-fourth”; the “effect of mixed micelles on absorption” value was “promotes the absorption”.

On to lysophosphatidyl choline, for which the “absorption of lysophosphatidyl choline” value in data set [7] (in vivo) is reported as “rapidly absorbed intact”.
